Source: patent US20120071628A1, “TOPICAL THERAPEUTIC AGENT FOR OPHTHALMIC DISEASES COMPRISING COMPOUND CAPABLE OF BINDING SPECIFICALLY TO DNA SEQUENCE” (NIHON UNIVERSITY, priority 2009, published 2012)

Experiments:
TGF-β1 protein = assay: Immunohistochemistry test of rat eyes after corneal injury; assay type: in vivo; conditions: day 1 after alkali injury
Method: At 1 hour and on 1, 4, and 7 days after induction of a corneal injury in rats, the eyeball was isolated and embedded in the OCT compound (Miles, Elkhart, Ind., USA.). The frozen section was sliced into sections having a thickness of 5 μm, and histological and immunohistological analyses were performed. Using rabbit-anti-human Tgf-β1 polyclonal antibody (Yanaihira, Japan, catalog No. Y241) as a primary antibody, the sample was diluted 1000-fold before use. 4 nontrauma corneas as normal controls were used to compare rTGF-β (GBP1201) PIP-treated eyes and mock-treated eyes. To determine the specificity of the primary antibody, a negative control was also included.

[1] = test system: alkali burn rat model (cornea); assay: Corneal opacity, ulceration and corneal defect in rats with alkali burn; assay type: in vivo; conditions: 1 μmol/L, 5 μl instilled once daily for 1 week, versus 0.1% aqueous acetic acid control
Method: 8-week-old male Wister rats were prepared and anesthetized with diethyl ether. Then, 5 μl of 0.5 N sodium hydroxide solution was administered […] to adult Wister rats by instilling the central part of the cornea of both eyes or one eye by a common method according to Saika et al. (Am J. Patho., 2005). At 10 seconds after instillation, the alkali liquid was washed off from the cornea surface with 10 ml of phosphate buffer to prepare an alkali burn rat model.
At 1 hour after a trauma due an alkali burn was induced (9.00 am), and 1 μmol/L rTGF-β (GBP1201) PIP compound and 1 μmol/L of a mixture of rMMP9AP1 and rMMP9NFkB in 1:1 (hereinafter, also referred to as rMMP9PIP) dissolved in 5 μl of 0.1% acetic acid hydrate were administered to the rat right eye by dropping in the central part of the cornea at 9.00 am once daily every day for 1 week. As a control, 0.1% aqueous acetic acid solution was administered to the left eye in the same manner as described above. The same experiment was performed in 6 rats. The reason why 0.1% aqueous acetic acid solution was used was that the PIP compound of the present invention was dissolved in this aqueous solution. Furthermore, to prevent the occurrence of an infection, antibiotic eye ointment Tarivid Ophthalmic Ointment 0.3% (Santen Pharmaceutical Co., Ltd.) was administered at 5.00 pm every day. Furthermore, the drug was administered to 2 rats in which an alkali burn was not induced as controls. Rats were observed every day at the time of instillation and application of an eye ointment, and the cornea was observed and photographed every evening. […] By utilizing this property, the corneal injury was evaluated according to the cornea fluorescein test using a FLUORES test paper (Showa Yakuhin Kako Co., Ltd.) that can test the corneal condition.
The cornea was observed until complete reepithelialization was observed. When the fluorescence staining of the cornea was not observed, complete reepithelialization was defined.
Transparency of the cornea was evaluated as follows. […]

[2] = test system: double-stranded oligo DNA containing the AP-1 binding site that corresponds to the TGF-β1 promoter; assay: Gel shift assay of PIP binding to target DNA; set-up: species or system rat
Method: For the gel shift assay, a fluorescence-labeled match oligo DNA containing the AP-1 binding site that corresponds to the TGF-β1 promoter was synthesized. Sense and antisense oligo DNA suitable for the test were annealed to prepare a double-stranded oligo DNA. 1 μM DNA was incubated with 50 μM PIP compound at 37° C. for 1 hour, separated by electrophoresis using 20% polyacrylamide gel, and visualized using a fluorescence image analyzer LAS-3000 (Fuji Film, Tokyo, Japan).

[3] = test system: biotin-labeled double-stranded oligo DNA (target DNA, rat TGF-β1 promoter); assay: Biacore assay of binding affinity for target DNA; conditions: surface plasmon resonance
Description: Biacore assay can measure binding affinity of rTGF-β (GBP1201) PIP for a target DNA in real time.
Biotin-labeled oligo DNA were annealed to form a double strand, and the double strand was immobilized on a sensor chip SA (Biacore, Uppsala, Sweden) on which streptavidin was immobilized beforehand.
Dynamics of interactions of rTGF-β (GBP1201) PIP, mismatch (FIG. 41 [a]) and biotin-labeled oligo DNA were investigated using Biacore 2000 System (Biacore, Uppsala, Sweden). Data was processed according to the protocol recommended by Biacore2000.

rTGF-β1 promoter = assay: Luciferase reporter plasmid assay of rTGF-β1 promoter expression induced by PMA; assay type: cell-based, rat; conditions: luciferase reporter plasmid with rTGF-β1 promoter region
Description: The reporter gene expression induced by adding PMA was inhibited by adding GBP1201 and GBP1203 but not by the mismatch polyamide.

[4] = test system: nucleus of cells in the cornea; assay: Distribution of FITC-labeled polyamide in the cornea of alkali injury model rats; assay type: in vivo, rat; conditions: 1 hour after administration, 1 μmol/L, 5 μl instilled
Method: The synthesized FITC polyamide was dissolved in 0.1% acetic acid solution, the concentration was adjusted to 1 μmol/L, 5 μl of the solution was dropped on the central part of the cornea of 8 alkali injury model rats at 1 hour after induction of a trauma. Two animals each were euthanized at 1 hour and on 1, 4, and 7 days after instillation of the FITC polyamide. The eyeball was isolated, embedded in the OCT compound (Miles, Elkhart, Ind., USA) in a plastic container for a frozen section sample, frozen with liquid nitrogen, and stored in an ultra-low temperature refrigerator at −80° C. The sample was thinly sliced into a section of 5 μm and observed under a fluorescence microscope (Olympus Corporation).

binding to the target DNA (gel shift) ([2]; 1 μM DNA, 50 μM PIP compound, 37° C., 1 hour)	binding to the mismatch polyamide (gel shift (so in the source)) ([2]; gel shift assay)	binding affinity for target DNA relative to the mismatch polyamide [3] [times]	Kd ([3]; target DNA, 0-300 nM) [nM]	reporter gene expression induced by adding PMA (rTGF-β1 promoter)	SMILES	TGF-β1 immunohistology versus controls (TGF-β1 protein)	healing of corneal opacity and ulceration [1]	healing of corneal defect (severity of corneal defect) ([1]; listed as TGF-β (GBP1201) PIP)	healing of corneal defect (severity of corneal defect) ([1]; listed as rTGF-β (GBP1201) PIP compound)	FITC fluorescence in the cornea [4]
bound specifically to the target DNA	did not bind to the mismatch polyamide	149	5.12	inhibited	CC(=O)Nc1cc(C(=O)Nc2cc(C(=O)NCCC(=O)Nc3cn(C)c(C(=O)Nc4cc(C(=O)Nc5cc(C(=O)NCCCC(=O)Nc6cn(C)c(C(=O)Nc7cc(C(=O)Nc8cc(C(=O)NCCC(=O)Nc9cn(C)c(C(=O)Nc%10cn(C)c(C(=O)NCCC(=O)NCCCN(C)C)n%10)n9)n(C)c8)n(C)c7)n6)n(C)c5)n(C)c4)n3)n(C)c2)n(C)c1 [rTGF-β (GBP1201)]	No immunohistological difference	significantly better than the control	significantly earlier (approximately twice as fast) than the control	significantly better than the control	
					CN(C)CCCNC(=O)CCNC(=O)c1nc(NC(=O)c2nc(NC(=O)CCNC(=O)c3cc(NC(=O)c4cc(NC(=O)c5nc(NC(=O)CCCNC(=O)c6cc(NC(=O)c7cc(NC(=O)c8nc(NC(=O)CCNC(=O)c9cc(NC(=O)c%10cc(NC(=O)CCNC(=S)Nc%11ccc%12c(c%11)C(=O)OC%12%11c%12ccc(O)cc%12Oc%12cc(O)ccc%12%11)cn%10C)cn9C)cn8C)cn7C)cn6C)cn5C)cn4C)cn3C)cn2C)cn1C [rTGF-β (GBP1201) FITC]					green FITC fluorescence is observed in the corneal epithelium and in the nucleus of interstitial cells in the cornea
